# According to patent publication US9302999B2, “Substituted triazoles as herbicides” (E. I. DU PONT DE NEMOURS AND COMPANY, priority 2012, dated 2016):
# Assays:
# Type in all cases: in vivo
# [1] = test system: velvetleaf (Abutilon theophrasti); experiment: Test A pre-/postemergence: velvetleaf
# How it was run: (§1)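 Injury is scored visually on a scale where 0 means no effect and 100 complete control, comparing treated with untreated plants after approximately ten greenhouse days. Both preemergence and postemergence applications are made at the same time.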
# [2] = test system: barnyardgrass (Echinochloa crus-galli); experiment: Test A pre-/postemergence: barnyardgrass
# How it was run: as §1
# [3] = test system: foxtail, giant (giant foxtail, Setaria faberii); experiment: Test A pre-/postemergence: foxtail, giant
# How it was run: as §1
# [4] = test system: wheat (Triticum aestivum); experiment: Test A pre-/postemergence: wheat
# How it was run: as §1
# [5] = test system: ducksalad (Heteranthera limosa); experiment: Test B flooded paddy: ducksalad; conditions: Flood, applied to paddy water at 2-leaf stage, visually evaluated after 13 to 15 days
# Procedure: (§2) Seeds selected from rice (Oryza sativa), sedge, umbrella (small-flower umbrella sedge Cyperus difformis), ducksalad (Heteranthera limosa), and barnyardgrass (Echinochloa crus-galli) were grown to the 2-leaf stage for testing. At time of treatment, test pots were flooded to 3 cm above the soil surface, treated by application of test compounds directly to the paddy water, and then maintained at that water depth for the duration of the test.
# (§3) Treated plants and controls were maintained in a greenhouse for 13 to 15 days, after which time all species were compared to controls and visually evaluated. Plant response ratings, summarized in Table B, are based on a scale of 0 to 100 where 0 is no effect and 100 is complete control. A dash (-) response means no test result.
# [6] = test system: barnyardgrass (Echinochloa crus-galli); experiment: Test B flooded paddy: barnyardgrass; conditions: Flood, applied to paddy water at 2-leaf stage, visually evaluated after 13 to 15 days
# How it was run: (§4)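 Plants were grown to the 2-leaf stage and pots flooded to 3 cm above soil. Compounds were applied directly into the paddy water, with depth kept for the test. After 13–15 days in greenhouse, response was rated visually against controls on a 0 (no effect) to 100 (complete control) scale.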
# [7] = test system: crabgrass, large (large crabgrass, Digitaria sanguinalis); experiment: Test A pre-/postemergence: crabgrass, large
# How it was run: as §1
# rice (Oryza sativa) = experiment: Test B flooded paddy: rice; conditions: Flood, applied to paddy water at 2-leaf stage, visually evaluated after 13 to 15 days
# How it was run: as §4
# [8] = test system: morningglory (Ipomoea spp.); experiment: Test A pre-/postemergence: morningglory
# How it was run: as §1
# [9] = test system: sedge, umbrella (small-flower umbrella sedge Cyperus difformis); experiment: Test B flooded paddy: sedge, umbrella; conditions: Flood, applied to paddy water at 2-leaf stage, visually evaluated after 13 to 15 days
# Procedure: as §2, §3
# [10] = test system: pigweed (Amaranthus retroflexus); experiment: Test A pre-/postemergence: pigweed
# How it was run: as §1
# corn (Zea mays) = experiment: Test A pre-/postemergence: corn
# How it was run: as §1
# [11] = Postemergence, 125 g ai/ha, 0 to 100 scale, 0 is no effect, 100 is complete control
# [12] = Postemergence, 500 g ai/ha, 0 to 100 scale, 0 is no effect, 100 is complete control
# [13] = Preemergence, 125 g ai/ha, 0 to 100 scale where 0 is no effect and 100 is complete control
# [14] = Preemergence, 500 g ai/ha, 0 to 100 scale (0 no effect, 100 complete control)
# [15] = Postemergence, 500 g ai/ha, visual rating on 0 to 100 scale (0 no effect, 100 complete control), approximately ten days
SMILES,"Plant response rating, Velvetleaf [1, 11]","Plant response rating, Velvetleaf [1, 13]","Plant response rating, Velvetleaf [1, 14]","Plant response rating, Barnyardgrass [2, 11]","Plant response rating, Barnyardgrass [2, 13]","Plant response rating, Barnyardgrass [2, 14]","Plant response rating, Foxtail, Giant [3, 11]","Plant response rating, Foxtail, Giant [3, 13]","Plant response rating, Foxtail, Giant [3, 14]","Plant response rating, Wheat [4, 11]","Plant response rating, Wheat [4, 13]","Plant response rating, Wheat [4, 14]","Plant response rating, Crabgrass, Large [7, 11]","Plant response rating, Crabgrass, Large [7, 13]","Plant response rating, Crabgrass, Large [7, 14]","Plant response rating, Morningglory [8, 11]","Plant response rating, Morningglory [8, 13]","Plant response rating, Morningglory [8, 14]","Plant response rating, Pigweed [10, 11]","Plant response rating, Pigweed [10, 13]",other results
CC(C)COc1nn(-c2ccc(C(F)(F)F)cc2)nc1Cc1ccnc(C(F)(F)F)c1 [Compound 193],30,0,0,10,0,0,10,10,70,0,0,0,10,0,40,10,0,0,70,0,"Velvetleaf plant response rating [1, 12]: 70; Barnyardgrass plant response rating [2, 12]: 20; Foxtail, Giant plant response rating [3, 12]: 20; Wheat plant response rating [4, 12]: 10; Plant response rating, Ducksalad (0 to 100 scale, 0 is no effect, 100 is complete control) ([5]; 125 g ai/ha): 0; Plant response rating, Barnyardgrass (0 to 100 scale, 0 is no effect, 100 is complete control) ([6]; 125 g ai/ha): 0; Crabgrass, Large plant response rating [7, 12]: 30; Plant response rating, Rice (0 to 100 scale, 0 is no effect, 100 is complete control) (rice (Oryza sativa); 125 g ai/ha): 0; Morningglory plant response rating [8, 12]: 40; Plant response rating, Sedge, Umbrella (0 to 100 scale, 0 is no effect, 100 is complete control) ([9]; 125 g ai/ha): 0; Pigweed plant response rating [10, 12]: 100; Plant response rating, Pigweed [10, 14]: 20; Plant response rating, Corn (corn (Zea mays); [11]): 10; Corn plant response rating (corn (Zea mays); [12]): 30; Plant response rating, Corn (corn (Zea mays); [13]): 0; Plant response rating, Corn (corn (Zea mays); [14]): 0"
Cc1nn(-c2ccc(F)cc2)nc1Cc1cccc(C(F)(F)F)c1 [Compound 157],40,0,0,20,20,100,80,90,100,0,0,0,40,20,90,60,0,0,100,80,"Barnyardgrass plant response rating [2, 15]: 70; Foxtail, Giant plant response rating [3, 15]: 90; Wheat plant response rating [4, 15]: 20; Plant response rating, Ducksalad (0 to 100 scale, 0 is no effect, 100 is complete control) ([5]; 250 g ai/ha): 20; Plant response rating, Barnyardgrass (0 to 100 scale, 0 is no effect, 100 is complete control) ([6]; 250 g ai/ha): 0; Crabgrass, Large plant response rating [7, 15]: 80; Plant response rating, Rice (0 to 100 scale, 0 is no effect, 100 is complete control) (rice (Oryza sativa); 250 g ai/ha): 0; Morningglory plant response rating [8, 15]: 80; Plant response rating, Sedge, Umbrella (0 to 100 scale, 0 is no effect, 100 is complete control) ([9]; 250 g ai/ha): 40; Pigweed plant response rating [10, 15]: 100; Plant response rating, Pigweed [10, 14]: 100; Plant response rating, Corn (corn (Zea mays); [11]): 20; Corn plant response rating (corn (Zea mays); [15]): 40; Plant response rating, Corn (corn (Zea mays); [13]): 0; Plant response rating, Corn (corn (Zea mays); [14]): 0"
CC(=O)Oc1nn(-c2ccc(C(F)(F)F)cc2)nc1Cc1ccnc(C(F)(F)F)c1 [Compound 197],20,0,0,0,0,0,10,0,0,0,0,0,10,0,0,30,0,0,30,0,"Velvetleaf plant response rating [1, 12]: 30; Barnyardgrass plant response rating [2, 12]: 10; Foxtail, Giant plant response rating [3, 12]: 40; Wheat plant response rating [4, 12]: 0; Plant response rating, Ducksalad (0 to 100 scale, 0 is no effect, 100 is complete control) ([5]; 250 g ai/ha): 0; Plant response rating, Barnyardgrass (0 to 100 scale, 0 is no effect, 100 is complete control) ([6]; 250 g ai/ha): 0; Crabgrass, Large plant response rating [7, 12]: 20; Plant response rating, Rice (0 to 100 scale, 0 is no effect, 100 is complete control) (rice (Oryza sativa); 250 g ai/ha): 0; Morningglory plant response rating [8, 12]: 40; Plant response rating, Sedge, Umbrella (0 to 100 scale, 0 is no effect, 100 is complete control) ([9]; 250 g ai/ha): 0; Pigweed plant response rating [10, 12]: 70; Plant response rating, Pigweed [10, 14]: 0; Plant response rating, Corn (corn (Zea mays); [11]): 0; Corn plant response rating (corn (Zea mays); [12]): 20; Plant response rating, Corn (corn (Zea mays); [13]): 0; Plant response rating, Corn (corn (Zea mays); [14]): 0"
